Source: patent US6417399B1, “Amelioration of neurological disorders by the administration of (2R),(3S), and/or (2S),3(S) stereoisomers of valnoctamide” (Yissum Research Development Company of the Hebrew …, priority 1997, dated 2002)
Several values for one entry are separate records, joined by “and”; a condition that tells them apart may be missing. Identical values can stand only once.

Key:
Assay type in all cases: in vivo, human
[1] = Pharmacokinetics of VCD stereoisomers in plasma after single oral dose of racemic valnoctamide to epileptic patients; conditions: for CL/F / Cmax / MRT / tmax / t½: single oral 400 mg racemic VCD; for half lives: epileptic patients
Method: (§1) Patients Six epileptic patients (four men and two women aged 23-35 years, with a body weight of 56-85 kg) were studied. All had been receiving a constant carbamazepine dose (800-1200 mg/day) for at least three months. One patient was also receiving phenytoin (250 mg/day) and a second patient phenobarbital (150 mg/day). Each patient received add-on VCD for eight consecutive days at a dosage of 400 mg on day 1 (single dose day), followed by 200 mg three times daily (tid) for seven days. On the last day, only the morning and the midday doses were administered. Blood samples for plasma VCD levels were collected at 0, 0.25, 0.5, 1, 1.5, 2, 3, 4, 5, 6, 8, 10, 12 and 24 hours after the first and the last morning dose. Additional samples were taken at times 0, 0.5, 1, and 2 hours after the morning dose on the last treatment day.
(§2) Plasma Handling and Analytical Assays Plasma samples were separated immediately by centrifugation at 2,000 g for 10 minutes and stored at −20° C. until assaying (VCD is stable at −20° C.). The VCD plasma samples were analyzed by a gas chromatograph (HP 5890 series II)-mass spectrometer (HP 5989A)-GC-MS data system equipped with chiral capillary column. The mass spectrometer was operated in E1 mode at 70eV, the source temperature of the MS was maintained at 200° C. and the quadruple at 100° C. Mass units and their relative abundance were calibrated with perfluorotributylamine (PFTBA). Spectra were collected in the range of […], and the chiral analysis started 18 minutes after injection. Gas chromatograph (GC) oven temperature programming conditions were as follows: 50° C. for 1 minute, then increasing at a rate of 8° C./minute until 100° C., holding for a minute then 4° C./minute until reaching a final temperature of 250° C. The injector temperature is 240° C. and the GC-MS transfer line temperature is 250° C. Inlet pressure is 5 psi with a linear flow rate 20 cm/second. Helium was used as the carrier gas. Chromatographic resolution of the VCD stereoisomers was accomplished by a direct separation on a chiral stationary phase (CSP) column. The CSP consisted of a Chirasil-γ-Dex (octakis (3-O-butanoyl-2,6-di-o-pentyl)-γ-cyclodextrin chemically linked via a 6-mono-octamethylene spacer to a dimethylpolysiloxane. The 0.25 μm Chirasil-γ-Dex was coated on a 25 m×250 μm (id) fused silica capillary column. This CSP of a cyclodextin derivative allows complete baseline resolution of the four stereoisomers (α=1.04, Rs=2.0-2.4) in 24 minutes as depicted in FIG. 2. Intra and inter-day variability in the retention times of the four VCD stereoisomers was less than 10%. A calibration curve was established by spiking drug-free plasma samples with known amounts of racemic VCD at a concentration range of 0.2 mg/L to 8 mg/L (or 0.05 mg/L to 2 mg/L of each of the four VCD stereoisomers).
(§3) Pharmacokinetic and Statistical Analysis Pharmacokinetic parameters were calculated by noncompartmental analysis according to statistical moment theory. Peak plasma concentrations (Cmax) and peak times (tmax) were derived directly from the measured values. The linear terminal slopes (λ) of the log-concentration of each VCD stereoisomer versus time curves were calculated by the peeling procedure. Half life (t½) values were calculated as 0.693/λ. Areas under the plasma concentration versus time curve (AUC), after single dosing, were calculated by the trapezoidal rule with extrapolation to infinity by dividing the last measured concentration by the terminal slope. During repeated administration AUC was calculated over the last two dosing intervals by using the trapezoidal rule. Mean residence time (MRT) was calculated after single dosing as AUMC/AUC, in which AUMC is the area under the concentration×time product versus time curve from zero to infinity. Following single dosing, oral clearance (CL/F, in which F is the oral availability) and apparent volume of distribution at steady state (Vss/F) were calculated as Dose/AUC and as MRT×CL/F, respectively. […]

[2] = Pharmacokinetics of VCD stereoisomers in plasma after single oral dose of racemic valnoctamide to healthy subjects
Method: Healthy Subjects Seven healthy male volunteers, aged 20-31 years, weighing 61 to 85 kg, received 2×200 mg valnoctamide tablets (Nirvanil@) at 08:00 hours after an overnight fast. Venous blood samples were taken through an indwelling catheter 0, 0.5, 1, 2, 3, 4, 5, 6, 8, 10, 12 and 24 hours after dosing. Food was witheld for 4 hours after dosing.
as §2
Pharmacokinetic and Statistical Analysis Pharmacokinetic parameters were calculated by noncompartmental analysis according to statistical moment theory. Peak plasma concentrations (Cmax) and peak times (tmax) were derived directly from the measured values. The linear terminal slopes (λ) of the log-concentration of each VCD stereoisomer versus time curves were calculated by the peeling procedure. Half life (t½) values were calculated as 0.693/λ. Areas under the plasma concentration versus time curve (AUC), after single dosing, were calculated by the trapezoidal rule with extrapolation to infinity by dividing the last measured concentration by the terminal slope. During repeated administration AUC was calculated over the last two dosing intervals by using the trapezoidal rule. Mean residence time (MRT) was calculated after single dosing as AUMC/AUC, in which AUMC is the area under the concentration×time product versus time curve from zero to infinity. Following single dosing, oral clearance (CL/F, in which F is the oral availability) and apparent volume of distribution at steady state (Vss/F) were calculated as Dose/AUC and as MRT×CL/F, respectively. Following repeated dosing, CL/F was calculated from the quotient of the dose (200 mg) and the AUC obtained during one dosing interval (defined as one-half of the AUC calculated over two consecutive dosing intervals). Comparison of the pharmacokinetic parameters of all four VCD stereoisomers was made by ANOVA.

[3] = Pharmacokinetics of VCD stereoisomers in plasma after repeated oral dosing of racemic valnoctamide to epileptic patients; conditions: repeated oral racemic VCD 200 mg tid, last day
Method: as §1, §2, §3

[4] = Mean ± SD of six epileptic patients
[5] = individual epileptic patients on carbamazepine
[6] = Mean ± SD of seven healthy subjects, single oral 400 mg racemic VCD
[7] = individual healthy subjects, single oral 400 mg racemic VCD
[8] = individual healthy subjects, single oral 400 mg racemic VCD (Nirvanil), stereoisomer in plasma
[9] = individual epileptic patients, last dosing interval

| CL/F [1, 4] [L/h] | Cmax [1, 4] [mg/L] | MRT [1, 4] [h] | tmax [1, 4] [h] | t½ [1, 4] [h] | half lives [1] | tmax [1, 5] | CL/F [2, 6] [L/h] | Cmax [2, 6] [mg/L] | MRT [2, 6] [h] | tmax [2, 6] [h] | t½ [2, 6] [h] | tmax [2, 7] | Compound | CL/F [1, 5] | Cmax [1, 5] | MRT [1, 5] | t½ [1, 5] | CL/F [2, 7] | Cmax [2, 7] | MRT [2, 7] | further results |
| --- | --- | --- | --- | --- | --- | --- | --- | --- | --- | --- | --- | --- | --- | --- | --- | --- | --- | --- | --- | --- | --- |
| 32 ± 7 | 0.78 ± 0.10 | 5.4 ± 1.5 | 0.8 ± 0.5 | 4.1 ± 2.1 | about 3 h | 1.5 h (2×) and 0.5 h (4×) | 4.2 ± 0.6 | 1.7 ± 0.2 | 15 ± 3 | 0.7 ± 0.3 | 10.2 ± 2.1 | 1 h (3×) and 0.5 h (4×) | CCC(C)C(CC)C(N)=O (single isomer, unassigned; stereoisomer a) [Stereoisomer A] | 40 L/h and 27 L/h and 35 L/h (2×) and 32 L/h and 20 L/h | 0.71 mg/L (2×) and 0.94 mg/L and 0.82 mg/L and 0.88 mg/L and 0.67 mg/L | 4.4 h and 5.1 h (2×) and 4.3 h and 5.3 h and 8.3 h | 2.8 h and 3.6 h (2×) and 2.5 h and 8.3 h and 3.8 h | 3.6 L/h and 4.5 L/h and 4.1 L/h and 3.7 L/h and 4.6 L/h and 4.2 L/h and 3.5 L/h | 2.0 mg/L and 1.5 mg/L (2×) and 1.8 mg/L (3×) and 1.7 mg/L | 13 h (2×) and 20 h and 12 h (2×) and 15 h and 18 h | t½ ([2]; Mean ± SD of seven healthy subjects, single oral 400 mg racemic VCD, listed as A): approximately 10 h; t½ [2, 8]: 8.8 h and 13.6 h and 8.1 h and 10.7 h and 9.5 h and 8.5 h and 12.5 h; CL/F [3, 4]: 21 ± 4 L/h; Cmax [3, 4]: 0.9 ± 0.2 mg/L; tmax [3, 4]: 1.5 ± 0.3 h; t½ [3, 4]: 2.8 ± 0.7 h; CL/F ([3]; individual epileptic patients): 23 L/h and 19 L/h (3×) and 20 L/h and 29 L/h; Cmax ([3]; individual epileptic patients): 0.9 mg/L and 1.1 mg/L and 0.72 mg/L and 0.86 mg/L and 0.8 mg/L and 1.2 mg/L; tmax ([3]; individual epileptic patients): 2.0 h and 1.5 h (3×) and 1.0 h and 1.75 h; t½ [3, 9]: 2.2 h and 2.7 h and 3.8 h (2×) and 2.4 h and 4.8 h |
| 80 ± 20 | 0.41 ± 0.12 | 4.0 ± 1.6 | 0.75 ± 0.41 | 3.0 ± 1.3 | about 3 h | 1 h and 0.5 h (4×) and 1.5 h | 8.7 ± 0.9 | 1.3 ± 0.2 | 8 ± 1 | 0.7 ± 0.3 | 5.8 ± 1.1 | 1 h (3×) and 0.5 h (4×) | CCC(C)C(CC)C(N)=O (single isomer, unassigned; stereoisomer b) [Stereoisomer B] | 108 L/h and 60 L/h and 94 L/h and 84 L/h and 56 L/h and 79 L/h | 0.31 mg/L and 0.56 mg/L and 0.3 mg/L and 0.48 mg/L and 0.51 mg/L and 0.32 mg/L | 3.6 h and 5.2 h and 3.3 h and 1.3 h and 5.1 h and 5.6 h | 1.4 h and 4.0 h (2×) and 1.3 h and 3.0 h and 4.1 h | 7.9 L/h (2×) and 9.2 L/h and 8.4 L/h and 10.2 L/h and 8.1 L/h and 9.3 L/h | 1.5 mg/L (2×) and 1.1 mg/L (2×) and 1.4 mg/L (3×) | 7.0 h and 10 h (2×) and 7 h and 9 h and 8 h (2×) | t½ ([2]; Mean ± SD of seven healthy subjects, single oral 400 mg racemic VCD, listed as stereoisomer B): ~5.8 h; t½ [2, 8]: 4.7 h and 7.3 h and 4.6 h and 6.0 h and 5.8 h and 5.2 h and 7.1 h; CL/F [3, 4]: 58 ± 14 L/h; Cmax [3, 4]: 0.4 ± 0.1 mg/L; tmax [3, 4]: 1.4 ± 0.3 h; t½ [3, 4]: 2.2 ± 0.5 h; CL/F ([3]; individual epileptic patients): 79 L/h and 50 L/h (2×) and 52 L/h and 71 L/h and 46 L/h; Cmax ([3]; individual epileptic patients): 0.4 mg/L (2×) and 0.5 mg/L (2×) and 0.3 mg/L (2×); tmax ([3]; individual epileptic patients): 2.0 h and 1.5 h (3×) and 1.0 h and 1.25 h; t½ [3, 9]: 2.0 h and 1.9 h and 2.9 h and 2.1 h and 4.3 h (2×) |
| 39 ± 8 | 0.7 ± 0.12 | 4.8 ± 0.4 | 0.83 ± 0.5 | 3.3 ± 0.5 | about 3 h | 1.5 h (2×) and 0.5 h (4×) | 4.3 ± 0.4 | 1.6 ± 0.2 | 15 ± 3 | 0.7 ± 0.3 | 10.3 ± 1.9 | 1 h (3×) and 0.5 h (4×) | CCC(C)C(CC)C(N)=O (single isomer, unassigned; stereoisomer c) [Stereoisomer C] | 50 L/h and 31 L/h and 44 L/h and 38 L/h and 28 L/h and 41 L/h | 0.55 mg/L and 0.82 mg/L and 0.56 mg/L and 0.76 mg/L and 0.8 mg/L and 0.7 mg/L | 4.4 h and 4.8 h (2×) and 4.2 h and 5.4 h and 5.0 h | 2.8 h and 3.4 h and 2.6 h and 3.7 h (2×) and 3.5 h | 4.0 L/h and 5.1 L/h and 4.3 L/h and 4.1 L/h (2×) and 4.6 L/h and 3.9 L/h | 1.8 mg/L (2×) and 1.4 mg/L and 1.7 mg/L (2×) and 1.6 mg/L and 1.5 mg/L | 12 h (2×) and 18 h (2×) and 14 h and 16 h and 13 h | t½ ([2]; Mean ± SD of seven healthy subjects, single oral 400 mg racemic VCD, listed as C): approximately 10 h; t½ [2, 8]: 8.4 h and 13 h and 8.0 h and 10 h and 11.1 h and 9.2 h and 12.4 h; CL/F [3, 4]: 27 ± 5 L/h; Cmax [3, 4]: 0.8 ± 0.2 mg/L; tmax [3, 4]: 1.4 ± 0.3 h; t½ [3, 4]: 2.9 ± 0.9 h; CL/F ([3]; individual epileptic patients): 26 L/h and 23 L/h (2×) and 24 L/h and 36 L/h and 28 L/h; Cmax ([3]; individual epileptic patients): 0.81 mg/L and 0.9 mg/L and 0.62 mg/L and 0.7 mg/L and 0.6 mg/L and 1.0 mg/L; tmax ([3]; individual epileptic patients): 2.0 h and 1.5 h (3×) and 1.0 h and 1.25 h; t½ [3, 9]: 2.2 h and 3.0 h and 4.1 h (2×) and 2.3 h and 5.0 h |
